Measurements from paper PMC12334614, “Chidamide and cytarabine synergistically treat acute myeloid leukemia: inhibiting ribosome biogenesis via the MYC-RRP9 pathway” (Cell Death & Disease, 2025).

Key:
MYC = molecular target: T1, MYC (Homo sapiens, UniProt P01106, A416G/K413A/P406A/V409A); assay: SPR (Biacore X100, steady-state affinity); type: binding
T1 construct: recombinant MYC protein carrying the predicted substitutions (MedChemExpress HY-P7S1056)

c-MYC = molecular target: T2, c-MYC (Homo sapiens, UniProt P01106); assay: SPR (Biacore X100, steady-state affinity); type: binding
T2 construct: recombinant c-MYC protein (RayBiotech) immobilized on CM5 chip
T2 sequence (P01106 16-454): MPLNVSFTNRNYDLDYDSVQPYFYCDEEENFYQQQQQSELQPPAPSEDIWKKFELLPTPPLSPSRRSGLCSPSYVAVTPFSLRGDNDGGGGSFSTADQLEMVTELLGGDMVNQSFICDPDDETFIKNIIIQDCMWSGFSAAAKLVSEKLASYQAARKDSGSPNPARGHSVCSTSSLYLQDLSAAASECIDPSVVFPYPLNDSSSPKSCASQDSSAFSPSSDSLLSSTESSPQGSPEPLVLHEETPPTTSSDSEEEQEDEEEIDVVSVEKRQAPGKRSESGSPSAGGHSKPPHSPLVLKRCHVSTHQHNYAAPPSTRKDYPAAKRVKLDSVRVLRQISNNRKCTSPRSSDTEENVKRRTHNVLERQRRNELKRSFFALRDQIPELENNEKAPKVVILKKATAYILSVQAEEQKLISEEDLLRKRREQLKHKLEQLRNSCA

T1 sequence (P01106 16-454 P406A/V409A/K413A/A416G): as the sequence (P01106 16-454) above, with P391A, V394A, K398A, A401G counted along it

Kd (MYC): 3.12 µM | Kd (c-MYC): 795 nM
Compound: Nc1cc(F)ccc1NC(=O)c1ccc(CNC(=O)/C=C/c2cccnc2)cc1 [chidamide]
